Legend:
[1] = tested on: patients with mild to moderate AD (MMSE 16-26); test: Phase 2 trial: Neuropsychiatric Inventory (NPI-12) scores, cluster scores and emergence of new NPS; type: in vivo, human
Text: Several scales have been used for the assessment of BPSD. These include scales that have been specifically designed for studying NPS in patients with dementia, such as the “Behavioral Pathology in AD Rating Scale” (BEHAVE-AD, Reisberg et al. BEHAVE-AD: A clinical rating scale for the assessment of pharmacologically remediable behavioral symptomatology in Alzheimer's disease. In: Altman H J, editor. Alzheimer's Disease: Problems, prospects, and perspectives. Plenum; New York: 1987. pp. 1-161996), CERAD behavior rating scale for dementia (BRSD, Tariot 1996, International Psychogeriatrics, 8(Suppl. 3):317-320), and the Neuropsychiatric Inventory (NPI, Cummings et al. 1994, Neurology. 1994; 44:2308-14). The NPI which was designed to evaluate the broad range of behavioral symptoms that may develop in dementia patients, is a well validated instrument and has been widely used in BPSD studies and in AD treatment trials. The original version assessed 10 symptoms or items, including: delusions, hallucinations, agitation/aggression, depression/dysphoria, anxiety, apathy, irritability, euphoria/elation, disinhibition, and aberrant motor behavior; and was subsequently updated to include appetite changes and nighttime behaviors (sleep disturbances). The NPI is administered by a trained individual as a structured interview with the patient's caregiver. Each item is assessed by a scripted screening question, and the frequency and severity of each item is scored from 0-4 (0: absent, 1: occasional or less than once per week to 4 occurs at least daily), and from 1-3 (1: mild or produces little distress in patient; 2: moderate or more disturbing to patient but can be re-directed by caregiver; and 3: severe or very disturbing to patient and difficult to re-direct). The total item-score is then derived from frequency multiplied by the severity score; and the total NPI score (NPI-T) is derived from addition of all item scores, with the range of scores being from 0 (no NPS at all) to 144 (all 12 NPS are present at maximum severity at daily basis). In the majority of the drug trials in Mild/Moderate AD, the mean total NPI scores are ˜10-12 at baseline. The Phase 2 study described in the example below utilized the NPI-12 item assessment; and the mean total NPI scores were between 8 and 10 at baseline. This baseline severity is slightly lower than the range reported in many Mild to Moderate AD trials reported in the literature.
(§1) In a Phase 2, parallel arm, dose-ranging, placebo-controlled, double-blind, multicenter trial in patients with mild to moderate AD (MMSE 16-26), scyllo-inositol was administered to study subjects in immediate release tablets twice daily at the dosage level set for each study arm or identical-appearing placebo tablets were administered in the control arm. […] The study included neuropsychological assessments using the NPI-12 item scale, as well as assessments of scyllo-Inositol (SI) and myo-inositol (MI) brain levels using magnetic resonance spectroscopy (MRS).
The present study was a dose ranging study in Mild and Moderate AD patients (defined as having MMSE scores of 16-26 inclusive), and included 3 doses of scyllo-insoitol given bid (250 mg, 1000 mg, and 2000 mg) and placebo. The study was of 78 weeks duration and enrolled a total of 353 patients, and 351 received study drug (safety population). Due to safety findings in the 2 highest dose groups, these 2 groups were discontinued and the study's final efficacy analysis was based only on the 250 mg and placebo groups. […] In the overall study population, total randomized to all 4 dose groups=353, total that received study drug=351 (safety population, at any dose). For placebo and 250 mg group, the overall m-ITT (modified intent-to-treat)=166, overall PPS (per protocol set)=96.
A potentially disease-modifying drug, by altering regional neuronal dysfunction, may prevent or delay the emergence of abnormal behaviors as quantified by the NPI outcomes. […]

[2] = tested on: myo-inositol brain levels; test: Phase 2 trial: brain myo-inositol and scyllo-inositol levels by magnetic resonance spectroscopy (MRS); type: in vivo, human
Procedure: as §1
The maximal myo-inositol reduction measured at the 3 studied doses was 44%, 66% and 60% at the 250 mg, 1000 mg, and 2000 mg bid doses, respectively.

myo-inositol = conditions: transgenic mice, Choi et al. 2010; cited from earlier work
[3] = 250 mg bid vs placebo, Mild AD, m-ITT

O[C@H]1[C@H](O)[C@@H](O)[C@H](O)[C@@H](O)[C@@H]1O [scyllo-inositol]
Score Difference (Summary Statistics), Affective Syndrome (6 symptoms) ([1]; 250 mg bid vs placebo, Mild AD MMSE 22-26, m-ITT): +3.47 | Score Difference (MMRM), Affective Syndrome (Depression, Anxiety, Agitation, Nighttime Behavior, Appetite Changes, Apathy) ([1]; 250 mg bid vs placebo, Mild AD MMSE 22-26, m-ITT, factor-analysis cluster): +1.36 | Score Difference (MMRM), Apathy [1, 3]: −0.35 | Score Difference (MMRM), Behavioral cluster: Aberrant Motor/Nighttime Behaviors [1, 3]: +0.05 | Score Difference (MMRM), Frontal cluster: Elation and Disinhibition [1, 3]: +0.33 | Score Difference (MMRM), Psychotic cluster: Delusions and Hallucinations [1, 3]: −0.29 | Score Difference (MMRM), Affective: Depression and Anxiety ([1]; 250 mg bid vs placebo, Moderate AD MMSE 16-21, m-ITT): +0.94 | improvement of Affective Syndrome score change compared to placebo group, by MMRM ([1]; 250 mg bid, Mild AD MMSE 22-26): 35% | improvement of Affective Syndrome score change compared to placebo group, by summary statistics ([1]; 250 mg bid, Mild AD MMSE 22-26): 91% | NPI total score benefit compared to placebo ([1]; 250 mg bid, Mild MMSE 22-26, m-ITT, 78 weeks): 44% | NPI total score numerical difference from placebo ([1]; 250 mg bid, Mild MMSE 22-26, m-ITT, 78 weeks, not statistically significant): ~2 points | proportion of patients who developed at least 2 new symptoms, lower versus placebo ([1]; 250 mg bid, Mild m-ITT MMSE 22-26, over 78 weeks, p<0.05): 21.5% | NPI total score improvement versus placebo ([1]; 250 mg bid, Moderate MMSE 16-21, PP analysis): ~50% | NPI total score, better than placebo ([1]; 250 mg bid, Moderate MMSE 16-21, PP analysis, 78 weeks, not statistically significant): ~4 points | NPI total score versus placebo ([1]; 250 mg bid, Moderate MMSE 16-21, m-ITT analysis): did not show significant differences from placebo | proportion of patients who developed at least 2 new symptoms, lower versus placebo ([1]; 250 mg bid, Moderate m-ITT MMSE 16-21, over 78 weeks, p=0.33): 12.4% | proportion of patients who developed at least 4 new symptoms, lower versus placebo ([1]; 250 mg bid, Moderate m-ITT MMSE 16-21, over 78 weeks, p=0.34): 12.1% | increase in prevalence of irritability, baseline to end of study ([1]; 250 mg group, Mild, week 78): 10% | prevalence of apathy, anxiety, agitation, appetite and sleep change, baseline to end of study ([1]; 250 mg group, Mild, week 78): remained stable | emergence of depression, anxiety, appetite change, agitation and apathy at any time during the study ([1]; 250 mg, Mild MMSE 22-26): decreases the emergence | emergence of NPS at any time during the study ([1]; 250 mg, Moderate MMSE 16-21): decreased emergence of most NPS | emergence of irritability ([1]; 250 mg, Moderate MMSE 16-21): more prevalent with treatment | Score Difference (MMRM), Affective: Depression and Anxiety ([1]; Moderate AD, PPS): +1.07 | Score Difference (MMRM), Apathy ([1]; Moderate AD, PPS): +0.14 | Score Difference (MMRM), Behavioral: Aberrant Motor, Nighttime Behaviors ([1]; Moderate AD, PPS): +1.42 | Score Difference (MMRM), Frontal: Elation and Disinhibition ([1]; Moderate AD, PPS): +0.68 | Score Difference (MMRM), Psychotic: Delusions and Hallucinations ([1]; Moderate AD, PPS): +1.32 | Score Difference (summary statistics), Affective: Depression and Anxiety ([1]; Moderate AD, PPS): +0.06 | Score Difference (summary statistics), Apathy ([1]; Moderate AD, PPS): +0.68 | Score Difference (summary statistics), Behavioral: Aberrant Motor, Nighttime Behaviors ([1]; Moderate AD, PPS): +1.96 | Score Difference (summary statistics), Frontal: Elation and Disinhibition ([1]; Moderate AD, PPS): +0.53 | Score Difference (summary statistics), Psychotic: Delusions and Hallucinations ([1]; Moderate AD, PPS): +0.71 | Score Difference (MMRM), Apathy ([1]; Moderate AD, m-ITT): +0.97 | Score Difference (MMRM), Behavioral: Aberrant Motor, Nighttime Behaviors ([1]; Moderate AD, m-ITT): +0.11 | Score Difference (MMRM), Frontal: Elation and Disinhibition ([1]; Moderate AD, m-ITT): +0.56 | Score Difference (MMRM), Psychotic: Delusions and Hallucinations ([1]; Moderate AD, m-ITT): −0.52 | Score Difference (summary statistics), Affective: Depression and Anxiety ([1]; Moderate AD, m-ITT): −0.15 | Score Difference (summary statistics), Apathy ([1]; Moderate AD, m-ITT): +1.09 | Score Difference (summary statistics), Behavioral: Aberrant Motor, Nighttime Behaviors ([1]; Moderate AD, m-ITT): +1.76 | Score Difference (summary statistics), Frontal: Elation and Disinhibition ([1]; Moderate AD, m-ITT): +0.48 | Score Difference (summary statistics), Psychotic: Delusions and Hallucinations ([1]; Moderate AD, m-ITT): +0.34 | emergence of depression and/or anxiety by plasma AUC quartile ([1]; plasma AUC corresponding to the 250 mg bid dose (second quartile)): significant decrease | maximal myo-inositol reduction in brain (MRS) ([2]; 250 mg bid, maximal at about 48 to about 78 weeks): 44% | maximal myo-inositol reduction in brain (MRS) ([2]; 1000 mg bid): 66% | maximal decrease of myo-inositol levels ([2]; 1000 mg bid and 2000 mg bid): 60-66% | maximal myo-inositol reduction in brain (MRS) ([2]; 2000 mg bid): 60% | brain scyllo-inositol level by MRS ([2]; 250, 1000, 2000 mg bid): dose-dependent increase | myo-inositol reductions in frontal cortex and hippocampus (MRS) (myo-inositol): rather modest non significant myo-inositol reductions

Reference: patent publication US20140243422A1, “METHODS OF TREATING BEHAVIORAL AND PSYCHIATRIC DISORDERS” (ELAN PHARMACEUTICALS, INC., priority 2011, published 2014)
